Values of other authors as cited in US6858233B2, “Simmondsin processing methods and products” (International Flora Technologies, Ltd., priority 2001, dated 2005).

Legend:
animals = settings: reported in the literature
rats = settings: relative to simmondsin, Cokelaere et al. 1996

In the case of `N#C/C=C1\[C@H](O[C@@H]2O[C@H](CO)[C@@H](O)[C@H](O)[C@H]2O)C[C@H](O)[C@H](O)[C@H]1O` [didemethyl simmondsin], the “ability to cause food intake reduction” value (animals) is given as “thought not to have such efficacy”.

For `CO[C@H]1[C@@H](OC)C[C@@H](O[C@@H]2O[C@H](CO)[C@@H](O)[C@H](O)[C@H]2O)/C(=C\C#N)[C@@H]1O` [simmondsin], the “ability to cause food intake reduction” value (animals) is listed as “significant food intake reduction”.

In the case of simmondsin ferulate, the “ability to cause food intake reduction” value (animals) is given as “significant food intake reduction” and the “efficacy compared to simmondsin (food intake reduction)” value (rats) is given as “about 67%”.
